From US20250222003A1, “PHARMACEUTICAL COMPOSITION FOR TREATING SOLID TUMORS” (Eisai R&D Management Co., Ltd., priority 2021, published 2025)

Assays:
[1] = tested on: patients with a solid tumor; assay: Suppression of nausea or vomiting associated with administration of Compound A by antiemetics; type: in vivo, human
Description: For subjects of administration that had the gastrointestinal symptoms, nausea or vomiting, the results of administration of various antiemetics were investigated to determine whether they could suppress the occurrence of nausea or vomiting. The antiemetics used were domperidone ([…], Nauzelin tablet), metoclopramide (peripheral D2 receptor antagonist, metoclopramide tablet), ramosetron hydrochloride (5-HT3 receptor antagonist, Nasea tablet), granisetron (5-HT3 receptor antagonist (Kytril tablet), and the like.
The antiemetics were timely administered to 20 subjects of administration that complained of vomiting during Cycle 1.
FIGS. 1 and 2 are graphs showing the relationship between Cmax(Cmax,ss) or AUC (AUC(0-tau),ss) and the vomiting flag for each test subject at the time of CID8. For example, the vomiting flag 3 means a case in which treatment with an antiemetic other than the 5-HT3 receptor antagonist was first attempted but vomiting could not be suppressed, and vomiting could be suppressed when the antiemetic was switched to the 5-HT3 receptor antagonist.
Five additional patients were investigated whether the occurrence of nausea or vomiting, which is an adverse event having a causal relationship with Compound A, could be suppressed. Ramosetron hydrochloride or granisetron hydrochloride (5-HT3 receptor antagonist) was administered to four patients of administration that complained of vomiting during Cycle 1. Of the four patients that complained of vomiting, three patients received granisetron hydrochloride to prevent the gastrointestinal symptoms (nausea, vomiting) associated with administration of Compound A.

[2] = tested on: patients with a solid tumor; conditions: human, in vivo
Description: This study was carried out as an open-label phase I clinical trial for Compound A. The study was composed of a dose-escalation part to evaluate the safety and tolerability of Compound A, and an expansion part to evaluate the safety, tolerability and preliminary efficacy of Compound A. Each dose in the Examples is expressed as a dose of Compound A in free form.
In the dose-escalation part, the safety and tolerability of Compound A was evaluated at a plurality of doses using a 3+3 design. The starting dose of Compound A was set at 10 mg BID (twice daily).
NCI CTCAE v5.0 was used to evaluate the severity.
This was performed using the analysis subject populations for all safety evaluations (excluding DLT evaluations).
Summary statistics for the safety data (continuous variables: number of cases, mean value, standard deviation, median, minimum and maximum values; categorical variables: number of cases and proportion) were calculated based on the actually administered treatments. […] The following laboratory tests were performed: hematological tests (red blood cell count, hemoglobin, hematocrit value, platelet count, white blood cell count, white blood cell fractions (neutrophils, lymphocytes, monocytes, eosinophils, basophils) coagulation test: INR), blood biochemical tests (liver function tests (AST, ALT, ALP, GGT, total bilirubin, direct bilirubin), renal function test (BUN, creatinine), other tests (blood glucose level, albumin, cholesterol, LDH, total protein, uric acid, amylase, lipase, Na, K, Cl, Ca, phosphorus, Mg, virus test: HBs antigen a, HBs antibody a, HBc antibody a, HCV antibody a, HIV antibody a, HBV DNAb, B-CTXc, 25-hydroxyvitamin Dd), and urine test (pH, protein, sugar, ketone bodies, occult blood, specific gravity)).

Structure (SMILES): C=CCN1CC(=O)N2[C@@H](Cc3ccc(O)cc3F)C(=O)N(Cc3cccc(N4CC(N5CCN(CC)CC5)C4)n3)C[C@@H]2N1C(=O)NCc1ccccc1 [Compound A, (6S,9aS)—N-benzyl-8-({6-[3-(4-ethylpiperazin-1-yl)azetidin-1-yl]pyridin-2-yl}methyl)-6-(2-fluoro-4-hydroxybenzyl)-4,7-dioxo-2-(prop-2-en-1-yl)hexahydro-2H-pyrazino[2,1-c][1,2,4]triazine-1 (6H)-carboxamide]
- Vomiting flag 0, N: neither nausea nor vomiting observed, or antiemetics not required ([1]; Table 10, before additional cases): 10
- Vomiting flag 0, N: neither nausea nor vomiting observed, or antiemetics not required ([1]; Table 14, entire dose-escalation part incl. additional cases): 11
- Subjects with Any Treatment-related TEAEs, Any Grade, (%) [2]: (89.3) %
- Subjects with Any Treatment-related TEAEs, Grade ≥3, (%) [2]: (10.7) %
- TEAE Alanine aminotransferase increased, Any Grade, (%) [2]: (14.3) %
- TEAE Amylase increased, Any Grade, (%) [2]: (3.6) %
- TEAE Anemia, Any Grade, (%) [2]: (10.7) %
- TEAE Aspartate aminotransferase increased, Any Grade, (%) [2]: (14.3) %
- TEAE C-telopeptide increased, Any Grade, (%) [2]: (3.6) %
- TEAE Decreased appetite, Any Grade, (%) [2]: (10.7) %
- TEAE Decreased appetite, Grade ≥3, (%) [2]: (7.1) %
- TEAE Diarrhea, Any Grade, (%) [2]: (7.1) %
- TEAE Electrocardiogram QT prolonged, Any Grade, (%) [2]: (3.6) %
- TEAE Hyperphosphatemia, Any Grade, (%) [2]: (3.6) %
- TEAE Lipase increased, Any Grade, (%) [2]: (3.6) %
- TEAE Lipase increased, Grade ≥3, (%) [2]: (3.6) %
- TEAE Liver disorder, Any Grade, (%) [2]: (3.6) %
- TEAE Nausea, Any Grade, (%) [2]: (78.6) %
- TEAE Osteoporosis, Any Grade, (%) [2]: (3.6) %
- TEAE Rash, Any Grade, (%) [2]: (3.6) %
- TEAE Sinus tachycardia, Any Grade, (%) [2]: (3.6) %
- TEAE Stomatitis, Any Grade, (%) [2]: (3.6) %
- TEAE Vomiting, Any Grade, (%) [2]: (67.9) %
- TEAE White blood cell count decreased, Any Grade, (%) [2]: (7.1) %
- recommended dose [2]: less than 160 mg BID
